These results are taken from PubChem BioAssay AID1117337 (Cheminformatics & Chemogenomics Research Group (CCRG), …, 2015).

The structures appear in SMILES notation. Active and inactive are the calls of the source. No rule for the calls is given here.

This experiment concerns ADSC/ECFC co-culture, VEGF-stimulated, CD31 tube area. The experiment is described as follows: inhibition of endothelial tube formation, dose response, imaging, VEGF stimulation, CD31 staining, tube area, IC50 (AID 1117337).
What is called IC50 is the point on the concentration scale where inhibition reaches its midpoint. Turning to `CN1CCC[C@@H]1CCO[C@](C)(c1ccccc1)c1ccc(Cl)cc1`, the IC50 was > 10 µM (inactive).

Turning to `CN(C)/N=N/c1nc[nH]c1C(N)=O`, the IC50 was 4.59 µM.

With `OCCN1CCN(CCCN2c3ccccc3Sc3ccc(Cl)cc32)CC1`, the IC50 is > 10 µM (inactive).

In the case of `CCc1cccc(N(C)C(N)=Nc2cccc3ccccc23)c1`, the IC50 was > 10 µM (inactive).

In the case of `COc1cc([C@@H]2c3cc4c(cc3[C@@H](O[C@@H]3O[C@@H]5CO[C@@H](C)O[C@@H]5[C@H](O)[C@@H]3O)[C@H]3COC(=O)[C@H]23)OCO4)cc(OC)c1O`, the IC50 was 0.109 µM.

For the compound `O=C(O)c1ccc2[nH]cc(CCCCN3CC=C(c4ccccc4)CC3)c2c1`, the IC50 was > 10 µM (inactive).

As for `C[C@H]1O[C@@H](O[C@H]2[C@@H](O)C[C@H](O[C@H]3[C@@H](O)C[C@H](O[C@H]4CC[C@@]5(C)[C@H](CC[C@@H]6[C@@H]5CC[C@]5(C)[C@@H](C7=CC(=O)OC7)CC[C@]65O)C4)O[C@@H]3C)O[C@@H]2C)C[C@H](O)[C@@H]1O`, the IC50 is 0.011 µM.

For `O=c1[nH]c(=O)n([C@H]2C[C@H](O)[C@@H](CO)O2)cc1Br`, the IC50 is 3.85 µM.

In the case of `Clc1ccc(Nc2nnc(Cc3ccncc3)c3ccccc23)cc1`, the concentration for half-maximal inhibition (IC50) is 0.111 µM.

`CCCCCCCCCCCCCCCC[N+](C)(C)CC`: the IC50 is 1.14 µM.

Consider `CSc1ccc2c(c1)C(N1CCN(C)CC1)Cc1ccccc1S2` (centres undefined), for which the IC50 was > 10 µM (inactive).

For `Nc1cc(C(F)(F)F)ccc1S`, the IC50 was > 10 µM (inactive).

As for `CCc1oc2ccccc2c1C(=O)c1cc(Br)c(O)c(Br)c1`, the IC50 is > 10 µM (inactive).

Consider `Nc1ncn([C@@H]2O[C@H](CO)[C@@H](O)[C@H]2O)c(=O)n1`, for which the IC50 was > 10 µM (inactive).

In the case of `O=C(O)c1ccc(-n2nc(-c3ccccc3O)nc2-c2ccccc2O)cc1`, the IC50 was 2.09 µM.

In the case of `CC[C@@H]([C@H](C)O)n1ncn(-c2ccc(N3CCN(c4ccc(OC[C@@H]5CO[C@@](Cn6cncn6)(c6ccc(F)cc6F)C5)cc4)CC3)cc2)c1=O`, the IC50 is 6.46 µM (inactive).

Consider `Cc1cccc(C)c1NC(=O)CC12CCCN1CCC2`, for which the IC50 is > 10 µM (inactive).

For the compound `CCCCCCCCCCCCCC[N+](C)(C)Cc1ccccc1`, the IC50 was 3.01 µM.

Consider `CCCCCCCCCCCCCCCCCCCCCC(=O)Nc1ccn([C@@H]2O[C@H](CO)[C@@H](O)[C@H]2O)c(=O)n1`, for which the IC50 was > 10 µM (inactive).

With `CCC(C)n1ncn(-c2ccc(N3CCN(c4ccc(OC[C@H]5CO[C@](Cn6cncn6)(c6ccc(Cl)cc6Cl)O5)cc4)CC3)cc2)c1=O` (some centres undefined), the IC50 is 1.55 µM.

Take `CCCCCCCCCCCC[N+](C)(C)CCOc1ccccc1`: the 50% inhibitory concentration (IC50) is 3.38 µM.

As to `C1CN(P2(N3CC3)=NP(N3CC3)(N3CC3)=NP(N3CC3)(N3CC3)=N2)CCO1` (centres undefined), the IC50 is 3.62 µM.

Turning to `O=c1c(-c2ccccc2)c1-c1ccccc1`, the IC50 was 3.84 µM.

Turning to `CCC=CCC=CCC=CCCCCCCCC(=O)O`, the IC50 is > 10 µM (inactive).

Regarding `CCCCc1oc2ccc(NS(C)(=O)=O)cc2c1C(=O)c1ccc(OCCCN(CCCC)CCCC)cc1`, the IC50 was 2.75 µM.

In the case of `CCCCCCCCOC(=O)c1ccccc1C(=O)OCCCCCCCC`, the IC50 was > 10 µM (inactive).

Turning to `Oc1cc(Cl)ccc1Oc1ccc(Cl)cc1Cl`, the IC50 is > 10 µM (inactive).

As to `CCC(C(=O)OCCOCCN(CC)CC)c1ccccc1` (centres undefined), the IC50 was > 10 µM (inactive).

As for `O=[N+]([O-])c1cccc(S(=O)(=O)NCCNS(=O)(=O)c2cccc([N+](=O)[O-])c2)c1`, the IC50 was > 10 µM (inactive).

For the compound `[O-][n+]1ccccc1SSc1cccc[n+]1[O-]`, the IC50 was 0.719 µM.

With `CCOC(=O)C1=C[C@]2(CC)CCCN3CCc4c(n1c1ccccc41)[C@@H]32`, the IC50 is > 10 µM (inactive).

Turning to `C/C(=C(/OCCOc1ccc(Cl)cc1)c1ccc(Cl)cc1Cl)n1ccnc1`, the IC50 is 5.84 µM (inactive).

For the compound `OC[C@H]1O[C@@H](n2cnc3c(=S)nc[nH]c32)[C@H](O)[C@@H]1O`, the half-inhibitory concentration (IC50) was 1.42 µM.

For the compound `CC(C)(C)C(=O)OCOP(=O)(COCCn1cnc2c(N)ncnc21)OCOC(=O)C(C)(C)C`, the IC50 was 0.391 µM.

For `CCCCCCCCCCCCCCCC[N+](C)(C)Cc1ccccc1`, the IC50 is 2.53 µM.

Consider `CC[C@H](C)C(=O)O[C@H]1C[C@@H](C)C=C2C=C[C@H](C)[C@H](CC[C@@H]3C[C@@H](O)CC(=O)O3)[C@H]21`, for which the IC50 is 3.27 µM.

Take `CCCCC(=O)O[C@H]1CC[C@H]2[C@@H]3CCc4cc(O)ccc4[C@@H]3CC[C@]12C`: the IC50 was > 10 µM (inactive).

For `CC(=O)[O][Hg][c]1ccccc1`, the IC50 was 0.53 µM.

Take `O=C(NC(=O)c1c(F)cccc1F)Nc1ccc(Cl)c(Oc2ncc(C(F)(F)F)cc2Cl)c1`: the IC50 was > 10 µM (inactive).

Regarding `CCOC(=O)C1=C(C)NC(C)=C(C(=O)OCC)C1c1ccccc1/C=C/C(=O)OC(C)(C)C`, the IC50 was > 10 µM (inactive).

Regarding `O=C1NCN(c2ccccc2)C12CCN(CCCC(c1ccc(F)cc1)c1ccc(F)cc1)CC2`, the IC50 is > 10 µM (inactive).

On to `CC(C)OC(=O)OCOP(=O)(CO[C@H](C)Cn1cnc2c(N)ncnc21)OCOC(=O)OC(C)C`, for which the IC50 was 3.84 µM.

With `CCC1C(=O)OCC1Cc1cncn1C` (centres undefined), the IC50 was > 10 µM (inactive).

Turning to `CCCCCCCCCCOCC(O)CN` (centres undefined), the IC50 was 6.55 µM (inactive).

As to `CC[C@]12CCCN3CCc4c(n(c5ccccc45)C(=O)C1)[C@@H]32`, the IC50 is > 10 µM (inactive).

`OC[C@@H](O)[C@H](O)[C@H](O)[C@@H](O)CO`: the IC50 was > 10 µM (inactive).

As for `CC[N+](CC)(CC)CCOc1ccc(/C=C/c2ccccc2)cc1`, the IC50 was > 10 µM (inactive).

Regarding `CCCCCCCCCCCCNCCNCCNCC(=O)O`, the IC50 is 6.04 µM (inactive).

Regarding `Cc1cc(C2CCCCC2)n(O)c(=O)c1`, the IC50 is > 10 µM (inactive).

Consider `CCCCCN=C(N)N/N=C/c1c[nH]c2ccc(OC)cc12`, for which the IC50 is 3.13 µM.

Take `Clc1ccc(C(Cn2ccnc2)OCc2ccc(Sc3ccccc3)cc2)c(Cl)c1` (centres undefined): the IC50 was > 10 µM (inactive).

Take `O=C1C(=O)c2ccccc2C(O)=C1C1CCC(c2ccc(Cl)cc2)CC1` (centres undefined): the IC50 is 5.18 µM (inactive).

Consider `CC(=O)c1ccc(OCC(=O)N2CCCCC2)cc1`, for which the IC50 is > 10 µM (inactive).

Consider `CN(C)c1ccc(C(=C2C=CC(=[N+](C)C)C=C2)c2ccc(N(C)C)cc2)cc1`, for which the IC50 was 0.186 µM.

With `O=c1[nH]c(=O)n([C@H]2C[C@H](O)[C@@H](CO)O2)cc1F`, the IC50 is 0.0216 µM.

For `CCN(CC)C(=O)/C(C#N)=C/c1cc(O)c(O)c([N+](=O)[O-])c1`, the IC50 was > 10 µM (inactive).

Turning to `Cc1c(C)c2c(c(C)c1O)CCC(C)(COc1ccc(CC3SC(=O)NC3=O)cc1)O2` (centres undefined), the IC50 was 5.14 µM (inactive).

Take `CCOc1ccc2nc3cc(N)ccc3c(N)c2c1`: the concentration for half-maximal inhibition (IC50) was 4.94 µM.

For `CCC1Nc2cc(Cl)c(S(N)(=O)=O)cc2S(=O)(=O)N1` (centres undefined), the IC50 was > 10 µM (inactive).

With `NC1=NCC2c3ccccc3Cc3ccccc3N12` (centres undefined), the IC50 is > 10 µM (inactive).

Consider `CC(=O)O[C@@]12CO[C@@H]1C[C@H](O)[C@@]1(C)C(=O)[C@H](O)C3=C(C)[C@@H](OC(=O)[C@H](O)[C@@H](NC(=O)OC(C)(C)C)c4ccccc4)C[C@@](O)([C@@H](OC(=O)c4ccccc4)[C@H]21)C3(C)C`, for which the IC50 is 0.001 µM.

As for `NC(=O)n1c(O)c(C(=O)c2cccs2)c2cc(Cl)ccc21`, the IC50 is > 10 µM (inactive).

On to `CCN[C@@H](C)Cc1cccc(C(F)(F)F)c1`, for which the IC50 was > 10 µM (inactive).

Turning to `Cc1c(C)c2c(c(C)c1O)CC[C@@](C)(CCC[C@H](C)CCC[C@H](C)CCCC(C)C)O2`, the IC50 is > 10 µM (inactive).

For `COc1cccc(CCc2ccccc2OCC(CN(C)C)OC(=O)CCC(=O)O)c1` (centres undefined), the IC50 was > 10 µM (inactive).

As to `CO[C@H]1O[C@@H]2O[C@@]3(C)CC[C@H]4[C@H](C)CC[C@@H]([C@@H]1C)[C@@]24OO3`, the IC50 was > 10 µM (inactive).

As to `COc1cccc2c1C(=O)c1c(O)c3c(c(O)c1C2=O)C[C@@](O)(C(=O)CO)C[C@@H]3O[C@H]1C[C@H](N)[C@H](O[C@@H]2CCCCO2)[C@H](C)O1`, the IC50 was 0.0063 µM.

For the compound `COc1ccc(/C=N/NC(=O)c2ccncc2)cc1OC`, the IC50 is > 10 µM (inactive).

On to `O=C(Nc1ccc(Br)cc1)c1cc(Br)cc(Br)c1O`, for which the IC50 was 1.81 µM.

`CCOC(=O)c1ccccc1C(=O)OCC`: the IC50 was > 10 µM (inactive).

For `CC(C)(C)CC(C)(C)c1ccc(O)cc1`, the IC50 is > 10 µM (inactive).

In the case of `C#C[C@]1(O)CC[C@H]2[C@@H]3CCc4cc(O)ccc4[C@H]3CC[C@@]21C`, the IC50 is > 10 µM (inactive).

Regarding `C[C@]12CC[C@@H]3c4ccc(O)cc4CC[C@H]3[C@@H]1CC[C@@H]2OC(=O)CCC1CCCC1`, the IC50 is 6.37 µM (inactive).

Consider `Cc1nc2ccc(CN(C)c3ccc(C(=O)N[C@@H](CCC(=O)O)C(=O)O)s3)cc2c(=O)[nH]1`, for which the IC50 is 0.354 µM.

Take `O=C(CCN1CCC(c2ccccc2)C1)c1ccc2c(c1)OCCO2` (centres undefined): the IC50 was > 10 µM (inactive).

Take `CCCCCCCCCCCCCC[N+](C)(C)C`: the IC50 is 1.9 µM.

On to `Cc1ccccc1C(=O)Nc1ccc(C(=O)N2CCCC(N(C)C)c3ccccc32)cc1` (centres undefined), for which the IC50 was > 10 µM (inactive).

For the compound `COc1ccc([C@@H]2Sc3ccccc3NC(=O)[C@@H]2O)cc1`, the IC50 was > 10 µM (inactive).

Regarding `CC(C(O)c1ccccc1)N(C)C/C=C/c1ccccc1` (centres undefined), the IC50 is > 10 µM (inactive).

Regarding `O=C(O)CCCc1ccc(N(CCCl)CCCl)cc1`, the IC50 was 1.24 µM.

With `CCCCCCCCOc1ccccc1C(=O)Nc1ccc(C(=O)OCC[N+](C)(CC)CC)cc1`, the IC50 was > 10 µM (inactive).

For `CCC1=C[C@@H]2CN(C1)Cc1c([nH]c3ccccc13)[C@@](C(=O)OC)(c1cc3c(cc1OC)N(C)[C@H]1[C@@](O)(C(=O)OC)[C@H](OC(C)=O)[C@]4(CC)C=CCN5CC[C@]31[C@@H]54)C2`, the IC50 was 0.0055 µM.

Take `CNC(=O)Oc1cccc2ccccc12`: the IC50 was > 10 µM (inactive).

On to `C=CCN1CC[C@]23CCCC[C@H]2[C@H]1Cc1ccc(O)cc13`, for which the IC50 is > 10 µM (inactive).
